For 32 compounds, EC50 results are on record in PubChem BioAssay AID1334 (NMMLSC, 2008).

This experiment concerns the target Cell division control protein 42 homolog (Homo sapiens) (UniProt P60953). The experiment can be described thus: wildtype Cdc42 GTP-binding inhibitors, dose response, biochemical, multiplex bead flow cytometry, Bodipy-FL-GTP (AID 1334).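 Further: potency of inhibiting fluorescent GTP binding to Cdc42.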 Particulars: bead-based flow cytometry, Bodipy-FL-GTP binding to GST-Cdc42.

Cell division control protein 42 homolog (Homo sapiens), sequence (P60953 whole entry, looked up): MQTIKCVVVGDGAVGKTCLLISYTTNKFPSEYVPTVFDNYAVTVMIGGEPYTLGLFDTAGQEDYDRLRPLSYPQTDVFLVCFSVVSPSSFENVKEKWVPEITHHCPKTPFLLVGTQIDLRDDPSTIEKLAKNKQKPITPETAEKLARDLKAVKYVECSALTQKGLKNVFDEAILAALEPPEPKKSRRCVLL

Regarding `CCCc1nc2c(=O)n(C)c(=O)nc-2n(C)n1`, the EC50 (usually the midpoint of the concentration-response curve) is 1.33 µM.

In the case of `CCCS(=O)(=O)c1nnnn1-c1cccc(OC)c1`, the concentration giving a half-maximal response (EC50) is 19.3 µM.

As to `NS(=O)(=O)c1ccc(N2N=C(c3ccccc3)CC2c2ccccc2)cc1` (configuration not stated), the EC50 is 8.22 µM.

Turning to `O=C(O)c1ccccc1Sc1ncnc2sc3c(c12)CCC3`, the EC50 was 4.38 µM.

Consider `Cc1nc2c(=O)n(C)c(=O)nc-2n(C)n1`, for which the EC50 is 1.96 µM.

For `O=C(O)c1ccccc1NCCc1ccc(Cl)cc1`, the EC50 was 1.53 µM.

`CCC(C(=O)NC1CCCC1)N(C(=O)Cn1nnc(-c2ccc(C)o2)n1)c1cnc2ccccc2c1` (configuration not stated): the EC50 is 34.6 µM.

Turning to `CC(=O)c1ccc(C#CC(=O)c2ccc([N+](=O)[O-])cc2)cc1`, the EC50 is 0.394 µM.

Consider `CCn1nc(/C=C/c2ccccc2)nc2c(=O)n(C)c(=O)nc1-2`, for which the EC50 is 1.55 µM.

In the case of `COc1ccc(-c2cc(C#N)nc(N3CCNCC3)n2)cc1`, the concentration giving a half-maximal response (EC50) was 28.1 µM.

As to `COc1ccc(C2CC(c3ccccc3)=NN2c2ccc(S(N)(=O)=O)cc2)cc1` (configuration not stated), the concentration giving a half-maximal response (EC50) is 3.2 µM.

With `CCS(=O)(=O)N1N=C(c2cccc(NS(C)(=O)=O)c2)CC1c1ccc(C)cc1` (configuration not stated), the EC50 was 2.6 µM.

Consider `CC(C)C(NCc1c(Cl)cccc1Cl)C(=O)O` (configuration not stated), for which the EC50 is 6.4 µM.

Regarding `S=C(Nc1ccc(Oc2ccccc2)cc1)NC1CCCCC1`, the EC50 is 32.8 µM.

Regarding `CCOc1ccc(/C=C2\SC(N3CCc4ccccc4C3)=NC2=O)cc1`, the EC50 is 40.5 µM.

As for `O=C(NCc1cccs1)c1cccnc1C(=O)O`, the EC50 is 4.01 µM.

For the compound `O=C(O)/C=C/c1cn(Cc2ccccc2)nc1-c1cccs1`, the concentration for a half-maximal effect (EC50) was 3.99 µM.

With `CCCN1C(=O)/C(=C/C=C2\N(CC)c3ccccc3C2(C)C)SC1=S`, the concentration giving a half-maximal response (EC50) was 5.49 µM.

For `Cc1ccc(C)c(OCCn2cc(C(=O)O)c3ccccc32)c1`, the concentration giving a half-maximal response (EC50) was 0.584 µM.

Turning to `CCOC(=O)c1cc([N+](=O)[O-])c([N+](=O)[O-])cc1NC(C)=O`, the half-maximal effective concentration (EC50) was 7.19 µM.

`CCOC(=O)c1c(NC(=O)C(=O)N/N=C/c2ccc(O)c(OC)c2)sc2c1CCCCC2`: the EC50 is 2.87 µM.

For `NS(=O)(=O)c1ccc(N2N=C(c3ccccc3)CC2c2cccc(F)c2)cc1` (configuration not stated), the concentration for a half-maximal effect (EC50) was 4.87 µM.

Consider `N#Cc1c(-c2ccccc2)nc(SCC(=O)Nc2ccccc2)[nH]c1=O`, for which the EC50 was 2.1 µM.

Consider `COC(=O)c1cccnc1SCCc1ccccc1`, for which the EC50 was 18.7 µM.

Take `CS(=O)(=O)c1ccc(C(=O)OCC(=O)NC(=O)C2CCCCC2)cc1[N+](=O)[O-]`: the EC50 is 53.1 µM.

With `Cc1cc(C)c(C)c(C(=O)c2ccccc2C(=O)O)c1C`, the EC50 is 5.95 µM.

`Cc1sc2nc3ccc(NCc4ccco4)nn3c(=O)c2c1C`: the EC50 is 21.5 µM.

In the case of `CCOC(=O)Cn1nnnc1C(C(C)C)N(Cc1cccs1)Cc1cc2cc(C)ccc2[nH]c1=O` (configuration not stated), the concentration giving a half-maximal response (EC50) is 7.28 µM.

As to `O=C(Nc1nnc(-c2ccc3c(c2)OCCO3)o1)c1ccc(Cc2ccccc2)cc1`, the EC50 was 0.355 µM.

Consider `O=C(O)c1ccccc1OCc1ccccc1Br`, for which the EC50 is 0.103 µM.

On to `CCc1ccc(NS(=O)(=O)c2ccc3[nH]cc(C(=O)N4CCc5ccccc54)c(=O)c3c2)cc1`, for which the EC50 was 18.9 µM.

In the case of `Cc1cccc2cc(CN(Cc3cccs3)C(c3nnnn3C3CCCC3)C(C)C)c(=O)[nH]c12` (configuration not stated), the EC50 is 1.96 µM.
